Data from article PMC8619001, “Discovery of New Ginsenol-Like Compounds with High Antiviral Activity” (Molecules, 2021).

Tests used:
HSV-1 = test system: HSV-1; design: method as in PMID 20008902; details: HSV-1, Figure 1; cited from earlier work
[1] = test system: influenza virus A/Puerto Rico/8/34 (H1N1); assay: organism not typed; format: cell-based; details: for IC50: MDCK, 72 h, read-out: IC50 H1N1
[2] = test system: A/California/7/2009 (H1N1) pdm09; assay: microbe, parasite or virus in culture; format: cell-based, influenza virus A/California/07/09 (H1N1)pdm09; details: Influenza A virus, H1N1, MDCK, 72 h, read-out: IC50 H1N1
A/Aichi/2/1968 (H3N2) = assay: microbe, parasite or virus in culture; format: cell-based, influenza virus A/Aichi/2/68 (H3N2); details: Influenza A virus, H1N1 / H3N2, MDCK, 72 h, read-out: IC50 H1N1
A/Anhui/1/2013 (H7N9) = assay: microbe, parasite or virus in culture; format: cell-based, influenza virus A/Anhui/1/2013 (H7N9); details: Influenza A virus, H1N1 / H7N9, MDCK, 72 h, read-out: IC50 H1N1
[3] = test system: A/Mallard/Pennsylvania/1984 (H5N2); assay: microbe, parasite or virus in culture; format: cell-based, influenza virus A/mallard/Pennsylvania/10218/84 (H5N2); details: Influenza A virus, H1N1 / H5N2, MDCK, in Anas platyrhynchos, 72 h, read-out: IC50 H1N1
[4] = test system: B/Florida/4/2006 (Yamagata-like); assay: microbe, parasite or virus in culture; format: cell-based, influenza virus B/Florida/4/2006 (Yamagata-like); details: Influenza B virus, MDCK, 72 h, read-out: IC50 H1N1
[5] = test system: influenza virus A/Puerto Rico/8/1934 (H1N1); assay: organism not typed; format: cell-based, influenza virus A/Puerto Rico/8/34 (H1N1); details: MDCK, 24 h, read-out: IC50 (virus yield reduction)
[6] = test system: influenza virus A/Puerto Rico/8/34 (H1N1); format: cell-based
[7] = target: viral hemagglutinin (HA) of influenza virus A/Puerto Rico/8/34 (H1N1) (Influenza A virus, UniProt P03452); format: biochemical
viral hemagglutinin (HA) of influenza virus A/Puerto Rico/8/34 (H1N1), sequence (P03452 18-343 limits assumed): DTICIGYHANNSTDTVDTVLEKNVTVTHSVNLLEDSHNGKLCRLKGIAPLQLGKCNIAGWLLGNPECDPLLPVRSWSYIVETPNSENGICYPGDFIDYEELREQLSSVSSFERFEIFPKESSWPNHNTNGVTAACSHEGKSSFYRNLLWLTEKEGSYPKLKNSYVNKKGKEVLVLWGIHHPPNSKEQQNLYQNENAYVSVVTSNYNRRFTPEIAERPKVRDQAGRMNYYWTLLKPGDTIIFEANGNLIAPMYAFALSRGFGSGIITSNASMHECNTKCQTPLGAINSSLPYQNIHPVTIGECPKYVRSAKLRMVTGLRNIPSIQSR
viral hemagglutinin (HA) of influenza virus A/Puerto Rico/8/34 (H1N1), sequence (P03452 344-565 limits assumed): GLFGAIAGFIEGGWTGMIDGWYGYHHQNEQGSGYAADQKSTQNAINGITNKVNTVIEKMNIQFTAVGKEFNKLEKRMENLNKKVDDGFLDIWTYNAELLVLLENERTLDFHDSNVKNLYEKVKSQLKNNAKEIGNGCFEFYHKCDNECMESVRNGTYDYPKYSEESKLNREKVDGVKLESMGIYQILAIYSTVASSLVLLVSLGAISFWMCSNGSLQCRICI

HA of A/Puerto Rico/8/34 = HA of A/Puerto Rico/8/34 (Influenza A virus, UniProt P03452); format: biochemical, influenza virus A/Puerto Rico/8/34 (H1N1); details: pH 5
HA of A/Puerto Rico/8/34, sequence (P03452 18-343 limits assumed): as the sequence (P03452 18-343 limits assumed) above
HA of A/Puerto Rico/8/34, sequence (P03452 344-565 limits assumed): as the sequence (P03452 344-565 limits assumed) above

[8] = test system: HA of A/Vladivostok/2/2009 (H1N1); format: biochemical, influenza virus A/Vladivostok/2/2009 (H1N1); details: pH 5
[9] = test system: HA of A/California/7/2009 (H1N1); format: biochemical, influenza virus A/California/07/09 (H1N1)pdm09; details: pH 5
[10] = test system: HA of influenza viruses A of H3, H5, and H7 subtypes and influenza virus B; format: biochemical; details: pH 5
in vitro = details: dog
[11] = In vivo toxicity study (LD50)
[12] = test system: influenza virus A/Leningrad/134/17/1957 (H2N2); details: cited from earlier work

Compound	IC50 [1]	CC50 (in vitro)	SI [1]	other results
C=C1CC/C=C(\C)CC[C@@H]2[C@@H]1CC2(C)C [Caryophyllene]	–	–	–	SI (HSV-1): 140
CC(=O)NC12CC(C)(C)C3CCC1(C)CCCC32C [Compound 1a, (1S,3aR,4R,7aS)-N-(2,2,4,7a-tetramethyloctahydro-1,4-etanoinden-3a-yl)-acetamide]	0.152 ± 0.03 µM	> 1140 µM	–	IC50 [2]: 10.7 ± 1.3 µM; IC50 (A/Aichi/2/1968 (H3N2)): 789 ± 82 µM; IC50 (A/Anhui/1/2013 (H7N9)): 126 ± 11.8 µM; IC50 [3]: 133 ± 15.6 µM; IC50 [4]: 1130 ± 141 µM; IC50 [5]: 0.15 µM; Period of presence in the culture medium giving the most pronounced effect [6]: 0 to 2 h post-infection (hpi); Effect on the hemagglutinating titre of the virus [7]: did not change the hemagglutinating titre of the virus; Inhibition of fusogenic activity of viral HA (HA of A/Puerto Rico/8/34): highest activity; Inhibition of fusogenic activity of viral HA [8]: highest activity; Inhibition of fusogenic activity of viral HA [9]: less sensitive; Inhibition of fusogenic activity of viral HA [10]: did not decrease their fusogenic activity, or this effect was observed only at the highest concentrations; LD50 [11]: > 5000 mg/kg
CCC(=O)NC12CC(C)(C)C3CCC1(C)CCCC32C (stereo not drawn) [Compound 1b, N-(2,2,4,7a-tetramethyloctahydro-3aH-1,4-ethanoinden-3a-yl)propionamide]	0.144 ± 0.019 µM	128 ± 9.4 µM	890	melting point: 103 °C
CC(C)C(=O)NC12CC(C)(C)C3CCC1(C)CCCC32C (stereo not drawn) [Compound 1c, N-(2,2,4,7a-tetramethyloctahydro-3aH-1,4-ethanoinden-3a-yl)isobutyramide]	0.21 ± 0.029 µM	> 1030 µM	5000	melting point: 103 °C
CC1(C)CC2(NC(=O)c3ccccc3)C3(C)CCCC2(C)C1CC3 (stereo not drawn) [Compound 1d, N-(2,2,4,7a-tetramethyloctahydro-3aH-1,4-ethanoinden-3a-yl)benzamide]	9.2 ± 1.1 µM	141 ± 11.5 µM	15	–
CC1(C)CC2(N)C3(C)CCCC2(C)C1CC3.Cl (stereo not drawn) [Compound 2, 2,2,4,7a-tetramethyloctahydro-3aH-1,4-ethanoinden-3a-amine hydrochloride]	0.45 ± 0.06 µM	15.4 ± 1.2 µM	34	melting point: 257.8 to 261.3 °C
CC(=S)NC12CC(C)(C)C3CCC1(C)CCCC32C (stereo not drawn) [Compound 3, N-(2,2,4,7a-tetramethyloctahydro-3aH-1,4-ethanoinden-3a-yl)ethanethioamide]	1.13 ± 0.19 µM	> 1130 µM	1000	–
CC(C)=CCC/C(C)=C/CC/C(C)=C/CO [Farnesol]	–	–	–	SI (HSV-1): 11
CCOC(=O)C1=C[C@@H](OC(CC)CC)[C@H](NC(C)=O)[C@@H](N)C1 [Oseltamivir, reference compound]	0.31 ± 0.04 µM	> 200 µM	–	–
C[C@H]1CC[C@@]2(O)C(C)(C)[C@@H]3CC[C@@]2(C)[C@H]1C3 [Patchouli alcohol]	–	–	–	SI [12]: 4.9
NC(=O)c1ncn([C@@H]2O[C@H](CO)[C@@H](O)[C@H]2O)n1 [Ribavirin, reference compound]	24.6 ± 3.7 µM	–	>81	CC50 at 72 h (in vitro): > 2000 µM
CC(N)C12CC3CC(CC(C3)C1)C2 (stereo not drawn) [Rimantadine, reference compound]	67 ± 4.9 µM	335 ± 27 µM	5	–
C=C1CCC2OC2(C)CCC2C1CC2(C)C (stereo not drawn) [beta-Caryophyllene oxide]	–	–	–	SI (HSV-1): 25
